In patent US11667664B2, “Cyclic dinucleotides for cytokine induction” (KAYLA THERAPEUTICS, priority 2014, dated 2023):

Key:
[1] = literature example (Li, 2014); cited from earlier work
[2] = test system: whole blood from healthy human donors; experiment: Cytokine induction in vitro in whole blood from healthy human donors (Example 2.5); type: cell-based; settings: blood diluted 1:1 in RPMI, 18 to 20 hours, averages for all 20 donors, FIG. 9; for Type I IFN induction in human whole blood (active concentration): HEK-Blue™ IFN-α/β-KO-STING reporter; for IL-1 induction in human whole blood (active concentration): HEK-Blue™ IL-1R reporter; for TNF-α induction in human whole blood (active concentration): HEK-Blue™ TNF-α reporter
Excerpt: HEK-Blue™ cell lines: The following three cell lines also were used for biological evaluation of the CDNs. • 1. HEK-Blue™ IFN-α/β-KO-STING: These cells are derived from HEK-Blue™ IFN-α/β cells (InvivoGen catalog code: hkb-ifnab), in which the STING gene has been inactivated. HEK-Blue™ IFN-α/β cells enable detection of bioactive human type I IFNs through monitoring of activation of the ISGF3 pathway. These cells were generated by stable transfection of HEK293 cells with the human STAT2 and IRF9 genes to obtain a fully active type I IFN signaling pathway. The other genes of the pathway (IFNAR1, IFNAR2, JAK1, TyK2 and STAT1) are naturally expressed in sufficient amounts. The cells were further transfected with a SEAP reporter gene under control of an IFN-α/β-inducible ISG54 promoter. Stimulation of HEK-Blue™ IFN-α/β cells with human IFN-α or IFN-β activates the JAK/STAT/ISGF3 pathway and subsequently induces production of SEAP. Production of Type I interferons in these cells is measured using QUANTI-Blue™. • 2. HEK-Blue™ IL-1R (InvivoGen catalog code: hkb-illr): HEK-Blue™ IL-1R cells were designed to detect bioactive human and murine IL-1β through monitoring of activation of the NF-κB and AP-1 pathways. Additionally, these cells detect bioactive IL-1β from cynomolgus monkeys, dogs and rats. In fact, HEK-Blue™ IL-1R cells can detect IL-la and IL-1(3, as these cytokines bind to the same receptor, IL-1R. These cells derive from HEK-Blue™ IL-1β cells (InvivoGen catalog code: hkb-illb), in which the TNF-α response is blocked. Therefore, HEK-Blue™ IL-1R cells respond specifically to IL-1. These cells endogenously express the human IL-1 receptor and were stably transfected with the murine IL-1 receptor, rendering them very sensitive to both human and murine IL-1(3. HEK-Blue™ IL-1R cells express a SEAP reporter gene under control of an IFN-(3 minimal promoter fused to five NF-κB and five AP-1 binding sites. Binding of IL-1β to IL-1R on the surface of HEK-Blue™ IL-1R cells triggers a signaling cascade that leads to the activation of NF-κB and subsequent production of SEAP. Production of IL-1β in these cells is measured using QUANTI-Blue™. • 3. HEK-Blue™ TNF-II-[…](InvivoGen catalog code: hkb-tnfdmyd): HEK-Blue™ TNF-α cells enable detection of bioactive human and murine TNF-α through monitoring of activation of the NF-κB pathway. These cells were generated by stable transfection of HEK293 cells with a SEAP reporter gene under control of an IFN-(3 minimal promoter fused to five NF-κB and five AP-1 binding sites. They were further rendered unresponsive to IL-1β by knocking out the MyD88 gene. Stimulation of HEK-Blue™ TNF-α cells with TNF-α triggers activation of the NF-κB-inducible promoter and production of SEAP. Production of TNF-α in these cells is measured using QUANTI-Blue™. Quantification of IL-6 in Experiments
Acquisition and Handling of Human Blood Samples
Twenty human blood samples were acquired from heathy donors at the San Diego Blood Bank (3636 Gateway Center Ave, Suite 100; San Diego, Calif. 92102; USA; www.sandiegobloodbank.org). Briefly, the samples were collected by venipuncture into sodium heparin (green-cap) tubes at the time of donation, and then stored at 4° C. until pick-up. The tubes were picked up on the day of collection, stored on ice during transport, and subsequently tested with the CDNs on the same day.
Each blood sample was diluted (1:1) in RPMI medium and aliquoted into 96-well plates (180-[…]L wells) containing each CDN at six different concentrations (30 µg/mL, 10 µg/mL, 3 µg/mL, 1 µg/mL, 0.3 µg/mL and 0.1 µg/mL). The plates were incubated at 37° C. in a CO2 incubator for 18 to 20 hours. The next day the supernatants were collected, transferred into the corresponding wells of round-bottom 96-well plates, and stored at −80° C. […]

[3] = test system: snake-venom phosphodiesterase (SVPD); experiment: Resistance to enzymatic cleavage by SVPD, monitored by UHPLC-MS (Example 2.6); settings: 37° C., FIGS. 10A, 10C; for Resistance to enzymatic degradation by SVPD, compared with corresponding non-fluorinated ribo-CDN analog: 7 μg CDN, 160 μg SVPD in PBS with 0.6 mM MgCl2, 0 to 120 hours; for Resistance to SVPD, compared with corresponding analog containing two phosphodiester linkages: phosphorothioate vs phosphodiester fluorinated deoxyribo-CDNs
Method: (§1) • Enzymes used: snake-venom phosphodiesterase (SVPD) and nuclease P1 (NP1) • Subject CDNs tested: CL603, CL632, CL614 and CL656 • Reference (non-fluorinated) CDNs tested: c-GAMP and c-AIMP • Property evaluated: resistance to enzymatic cleavage
(§2) We incubated each CDN with either of two enzymes known to cleave nucleic acids and CDNs, and then looked for signs of degradation by UHPLC over time, by measuring the decrease in the area of the peak corresponding to the CDN (identified according to MS). Specifically, we assessed the resistance of the CDNs to snake-venom phosphodiesterase (SVPD) and nuclease P1 (NP1), both of which can degrade CDNs by cleaving the phosphodiester nucleotide linkages. The experiment was performed as follows:
(§3) Each CDN (7 […]g) was separately incubated with a solution (21 µL) of either enzyme (either 160 µg SVPD in PBS buffer containing 0.6 mM MgCl2; or 2.5 mU NP1 in 30 mM acetate buffer containing 2 mM ZnCl2 [pH 5.3]), or with water (as control) in a water bath at 37° C. Aliquots of the reaction mixture were collected at various time points from 0 to 120 hours, heated at 100° C. for 2 min, and then frozen at […] Finally, 10 µL of each aliquot was injected directly into the HPLC (Agilent 1290 Infinity UHPLC equipped with a UV-detector; column: Waters Acquity UPLC CSH C18 1.7 µm [2.1 mm×50 mm; flow rate: 0.3 mL/min]; detection at 254 nm; autosampler temperature: 25° C.) for analysis. The following gradient was used: 100% A (10 mM aq. ammonium formate) for 1 minute; then 100% A to 100% B (acetonitrile) over 5 minutes.
(§4) The percentage of absorbance of CDNs at each time point was calculated by dividing the peak area corresponding to the parent CDN, by the sum of all the peak areas in the chromatogram, and then multiplying by 100.

nuclease P1 (NP1) = target: T1, nuclease P1 (NP1) (Penicillium citrinum, UniProt P24289); experiment: Resistance to enzymatic cleavage by NP1, monitored by UHPLC-MS (Example 2.6); settings: 7 μg CDN; 2.5 mU NP1 in 30 mM acetate buffer with 2 mM ZnCl2, pH 5.3; 37° C.; 0 to 120 hours; FIGS. 10B, 10D
T1 sequence (P24289 1-270): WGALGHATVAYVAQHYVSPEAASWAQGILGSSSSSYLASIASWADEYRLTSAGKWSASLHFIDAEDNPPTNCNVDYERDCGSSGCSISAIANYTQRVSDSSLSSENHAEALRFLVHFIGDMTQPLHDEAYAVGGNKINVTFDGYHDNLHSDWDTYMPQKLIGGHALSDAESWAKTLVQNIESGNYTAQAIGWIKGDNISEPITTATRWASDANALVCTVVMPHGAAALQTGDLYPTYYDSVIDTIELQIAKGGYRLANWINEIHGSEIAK
Method: as §1, §2, §3, §4

mice = experiment: Cytokine induction in CDN-treated mice (Example 2.3); type: in vivo, mouse; settings: Swiss mice; 10 mg/kg i.v.; 4 h post-injection; RAW ISG54 reporter cells; FIG. 6
Excerpt: Interleukin-6 was quantified using an enzyme-linked immunoassay (ELISA) according to the manufacturer's instructions (R&D Systems).
• Species evaluated: mouse • Cyclic dinucleotides tested: CL604, CL606, CL609, CL611 and CL614 • Reference compound: c-AIMP and saline • Cytokines evaluated: IFN-α/β (using RAW ISG54 reporter cells) and IL-6 (by ELISA).
Twenty-one mice (Swiss; female; mean age: 8 weeks) were divided into seven groups of three: one group served as control (saline) and the other six groups were each treated with a cyclic dinucleotide (either c-AIMP, CL604, CL606, CL609, CL611 or CL614). On Day −7, blood samples for basal cytokine levels were collected from all mice and stored at −20° C. until analysis. On Day 1, the mice were treated with either 200 μL of physiologic serum (containing 0.9% NaCl) or 200 μL of a solution of a cyclic dinucleotide (dose: 10 mg/kg) in physiologic serum (containing 0.9% NaCl), by intravenous (i.v.) injection. Blood samples were collected from the mice at 4 h post-injection, and then stored at −20° C. until analysis. Cytokine induction was measured in the sera from the blood samples.

Structure (SMILES): Nc1nc2c(ncn2[C@@H]2O[C@@H]3COP(O)(=S)O[C@H]4[C@@H](O)[C@H](n5cnc6c(N)ncnc65)O[C@@H]4COP(=O)(S)O[C@@H]2[C@@H]3O)c(=O)[nH]1 (stereo partly drawn) [(2′,3′) c-GAMP(S)]
- Resistance to enzymatic hydrolysis compared with phosphodiester analog [1]: more resistant to enzymatic hydrolysis

Structure (SMILES): Nc1ncnc2c1ncn2C1OC2COP(=O)(O)O[C@@H]3C(COP(=O)(O)O[C@H]2[C@H]1F)OC(n1cnc2c(=O)[nH]cnc21)[C@@H]3F (some centres unmarked) [CL614]
- Type I IFN induction in human whole blood (active concentration) [2]: more active than is its corresponding non-fluorinated analog
- IL-1 induction in human whole blood (active concentration) [2]: more active than is its corresponding non-fluorinated analog
- TNF-α induction in human whole blood (active concentration) [2]: more active than is its corresponding non-fluorinated analog
- Resistance to enzymatic degradation by SVPD, compared with corresponding non-fluorinated ribo-CDN analog [3]: more resistant to enzymatic degradation
- Resistance to enzymatic degradation by NP1, compared with corresponding non-fluorinated ribo-CDN analog (nuclease P1 (NP1)): more resistant to enzymatic degradation

Structure (SMILES): Nc1nc2c(ncn2C2OC3COP(=O)(S)O[C@@H]4C(COP(=O)(S)O[C@H]3[C@H]2F)OC(n2cnc3c(N)ncnc32)[C@@H]4F)c(=O)[nH]1 (some centres unmarked) [CL632]
- Resistance to enzymatic degradation by SVPD, compared with corresponding non-fluorinated ribo-CDN analog [3]: more resistant to enzymatic degradation
- Resistance to SVPD, compared with corresponding analog containing two phosphodiester linkages [3]: more resistant to SVPD
- Resistance to enzymatic degradation by NP1, compared with corresponding non-fluorinated ribo-CDN analog (nuclease P1 (NP1)): more resistant to enzymatic degradation

Structure (SMILES): Nc1nc2c(ncn2C2OC3COP(=O)(O)O[C@@H]4C(COP(=O)(O)O[C@H]3[C@H]2F)OC(n2cnc3c(N)ncnc32)[C@@H]4F)c(=O)[nH]1 (some centres unmarked) [CL603]
- Type I IFN induction in human whole blood (active concentration) [2]: more active than is its corresponding non-fluorinated analog
- IL-1 induction in human whole blood (active concentration) [2]: more active than is its corresponding non-fluorinated analog
- TNF-α induction in human whole blood (active concentration) [2]: more active than is its corresponding non-fluorinated analog
- Resistance to enzymatic degradation by SVPD, compared with corresponding non-fluorinated ribo-CDN analog [3]: more resistant to enzymatic degradation
- Resistance to enzymatic degradation by NP1, compared with corresponding non-fluorinated ribo-CDN analog (nuclease P1 (NP1)): more resistant to enzymatic degradation

Structure (SMILES): Nc1ncnc2c1ncn2C1OC2COP(=O)(O)O[C@H]3C(n4cnc5c(=O)[nH]cnc54)OC(COP(=O)(O)O[C@@H]1[C@@H]2O)[C@H]3O (some centres unmarked) [CL611]
- Type I interferon (IFN-α/β) induction in sera from mice (mice): except CL611 strongly induced Type I interferons

Structure (SMILES): Nc1ncnc2c1ncn2C1OC2COP(=O)(S)O[C@@H]3C(COP(=O)(S)O[C@H]2[C@H]1F)OC(n1cnc2c(=O)[nH]cnc21)[C@@H]3F (mixture of isomers) [CL656]
- Type I IFN induction in human whole blood (active concentration) [2]: more active than is its corresponding non-fluorinated analog
- IL-1 induction in human whole blood (active concentration) [2]: more active than is its corresponding non-fluorinated analog
- TNF-α induction in human whole blood (active concentration) [2]: more active than is its corresponding non-fluorinated analog
- Resistance to enzymatic degradation by SVPD, compared with corresponding non-fluorinated ribo-CDN analog [3]: more resistant to enzymatic degradation
- Resistance to SVPD, compared with corresponding analog containing two phosphodiester linkages [3]: more resistant to SVPD
